Values of other authors in US6849271B2, “Microcapsule matrix microspheres, absorption-enhancing pharmaceutical compositions and methods” (Verion, Inc., priority 2001, dated 2005).

Conditions: published by the FDA

Permeability class, Low:
CC1(C)S[C@@H]2[C@H](NC(=O)[C@H](N)c3ccc(O)cc3)C(=O)N2[C@H]1C(=O)O [Amoxicillin], C[C@](N)(Cc1ccc(O)c(O)c1)C(=O)O [L-Methyldopa], OC[C@@H](O)[C@@H](O)[C@H](O)[C@H](O)CO [Mannitol], CNC(=C[N+](=O)[O-])NCCSCc1ccc(CN(C)C)o1 [Ranitidine]
